Among the test systems are A498 renal; HL-60(TB) leukemia; IGROV1 ovarian; LOX IMVI melanoma; MDA-MB-231 breast; OVCAR-3 ovarian; OVCAR-8 ovarian; RXF 393 renal; SF-539 CNS; SK-MEL-2 melanoma; SNB-75 CNS; U251 CNS.
Holding throughout (test): DTP human tumour cell line panel, 48 h

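Interpolation was linear, between the two tested concentrations surrounding the appropriate level; five concentrations were tested over 48 hours in 96-well plates. Definition used: TGI = concentration required for complete inhibition of growth.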

The TGI is the concentration at which net growth stops. Higher therefore signals lower sensitivity of the cells. Turning to `COc1ccc(/N=N/C(=NNC(=O)c2ccc(C)cc2)c2ccc(N(C)C)cc2)cc1`, the TGI was more than 100 µM with A498 renal; more than 67.7 µM with HL-60(TB) leukemia; more than 100 µM in the assay with IGROV1 ovarian; more than 100 µM in the assay with LOX IMVI melanoma; more than 100 µM in the assay with MDA-MB-231 breast; more than 79.4 µM in the assay with OVCAR-3 ovarian. Besides, the TGI in the assay with OVCAR-8 ovarian, in the assay on RXF 393 renal, in the assay with SF-539 CNS, with SK-MEL-2 melanoma, in the assay on SNB-75 CNS and in the assay on U251 CNS was more than 100 µM in each case.
For the molecule `Cc1ccc2c(c1)Nc1ccccc1P2(=O)O`, the TGI in the assay with A498 renal, in the assay with HL-60(TB) leukemia, with IGROV1 ovarian, in the assay with LOX IMVI melanoma, with MDA-MB-231 breast and in the assay on OVCAR-3 ovarian was more than 100 µM each time. Further, the TGI with OVCAR-8 ovarian is more than 100 µM; in the assay with RXF 393 renal, more than 100 µM; in the assay on SF-539 CNS, more than 100 µM; in the assay with SK-MEL-2 melanoma, more than 100 µM; with SNB-75 CNS, 97.7 µM; with U251 CNS, more than 100 µM.
For the molecule `Fc1ccc2c(c1)nc1n2C(c2c(F)cccc2F)SC1` (stereo not drawn), the TGI is more than 100 µM with A498 renal; 70 µM in the assay with HL-60(TB) leukemia; more than 100 µM with IGROV1 ovarian; more than 100 µM with LOX IMVI melanoma; more than 100 µM in the assay with MDA-MB-231 breast; more than 100 µM in the assay with OVCAR-3 ovarian. Besides, the TGI in the assay on OVCAR-8 ovarian, with RXF 393 renal, in the assay with SF-539 CNS, with SK-MEL-2 melanoma, in the assay on SNB-75 CNS and in the assay on U251 CNS was more than 100 µM throughout.
Take `CC(C)=CCC[C@@H](C)C1=C(O)C(Nc2ccccc2)=C(C)C(=O)C1=O`: the TGI in the assay with A498 renal is 87.1 µM; in the assay with HL-60(TB) leukemia, 24.4 µM; with IGROV1 ovarian, more than 100 µM; with LOX IMVI melanoma, more than 100 µM; in the assay on MDA-MB-231 breast, more than 100 µM; with OVCAR-3 ovarian it was more than 52.2 µM. The TGI in the assay on OVCAR-8 ovarian is more than 100 µM; with RXF 393 renal, 60.7 µM; with SF-539 CNS, 84.8 µM; with SK-MEL-2 melanoma, more than 89.9 µM; in the assay with SNB-75 CNS, more than 85.8 µM; in the assay on U251 CNS, more than 100 µM.
For `CCOC(=O)CCC(NC(=O)c1ccc(Nc2nc3ccccc3nc2C(=O)OCC)s1)C(=O)OCC` (stereo not drawn), the TGI in the assay with A498 renal, in the assay with HL-60(TB) leukemia, in the assay with IGROV1 ovarian, in the assay with LOX IMVI melanoma, in the assay on MDA-MB-231 breast and in the assay on OVCAR-3 ovarian was more than 100 µM throughout. Besides, the TGI with OVCAR-8 ovarian, in the assay on RXF 393 renal, in the assay with SF-539 CNS, in the assay on SK-MEL-2 melanoma, with SNB-75 CNS and with U251 CNS was more than 100 µM each time.
For the molecule `CC(C)(CO)CNc1cc(Cl)nc(N)n1`, the TGI in the assay with A498 renal, in the assay with HL-60(TB) leukemia, in the assay on IGROV1 ovarian, in the assay on LOX IMVI melanoma, in the assay with MDA-MB-231 breast and in the assay on OVCAR-3 ovarian was more than 100 µM throughout. Besides, the TGI with OVCAR-8 ovarian, with RXF 393 renal, with SF-539 CNS, with SK-MEL-2 melanoma, in the assay with SNB-75 CNS and in the assay on U251 CNS was more than 100 µM throughout.
As for `O=c1onc(Nc2ccccc2)n1-c1ccccc1`, the TGI in the assay with A498 renal, in the assay with HL-60(TB) leukemia, in the assay with IGROV1 ovarian, in the assay on LOX IMVI melanoma, in the assay with MDA-MB-231 breast and with OVCAR-3 ovarian was more than 100 µM each time. Also, the TGI with OVCAR-8 ovarian, in the assay on RXF 393 renal, in the assay on SF-539 CNS, with SK-MEL-2 melanoma, in the assay on SNB-75 CNS and in the assay on U251 CNS was more than 100 µM throughout.
With `C=C1CC(O)C2C(=C)C(=O)OC2C2C(C)C(=O)CC12` (stereo not drawn), the TGI in the assay with A498 renal stood at 63.3 µM; in the assay with HL-60(TB) leukemia it was 9.43 µM; in the assay with IGROV1 ovarian, 36.2 µM; in the assay on LOX IMVI melanoma, 80.2 µM; with MDA-MB-231 breast it was 35.4 µM; in the assay with OVCAR-3 ovarian, 24 µM. Moreover, the TGI in the assay with OVCAR-8 ovarian came out at 50.9 µM; with RXF 393 renal, 17.4 µM; in the assay on SF-539 CNS, 54.2 µM; in the assay with SK-MEL-2 melanoma, 38.2 µM; in the assay on SNB-75 CNS it was 30.3 µM; with U251 CNS, 59.1 µM.
Take `COc1cc(-c2nc(SC)nc3c2CCc2ccccc2-3)cc(OC)c1OC`: the TGI in the assay on A498 renal, in the assay with HL-60(TB) leukemia, in the assay on IGROV1 ovarian, in the assay with LOX IMVI melanoma, in the assay on MDA-MB-231 breast and in the assay with OVCAR-3 ovarian was more than 100 µM throughout. The TGI with OVCAR-8 ovarian, with RXF 393 renal, in the assay with SF-539 CNS, in the assay with SK-MEL-2 melanoma, in the assay on SNB-75 CNS and in the assay with U251 CNS was more than 100 µM in each case.
`OCC(S)CS.[Bi]` (stereo not drawn): the TGI in the assay with A498 renal was 56.3 µM; in the assay on HL-60(TB) leukemia, 46.4 µM; in the assay with IGROV1 ovarian, 54.9 µM; in the assay with LOX IMVI melanoma it was more than 100 µM; in the assay on MDA-MB-231 breast it was 43.2 µM; in the assay with OVCAR-3 ovarian, 24.7 µM. Further, the TGI in the assay with OVCAR-8 ovarian is 52.3 µM; with RXF 393 renal, 26.2 µM; in the assay on SF-539 CNS, more than 100 µM; with SK-MEL-2 melanoma, 30 µM; in the assay on SNB-75 CNS it was 26.8 µM; in the assay with U251 CNS, 40.2 µM.
On to `CCC(C)N1CN(c2ccccc2)C2(CCN(CCCC3(c4ccc(F)cc4)OCCO3)CC2)C1=O` (stereo not drawn), for which the TGI with A498 renal was determined as 37 µM; with HL-60(TB) leukemia it was 23 µM; in the assay with IGROV1 ovarian, 30.7 µM; in the assay on LOX IMVI melanoma, 21.6 µM; with MDA-MB-231 breast, 26.2 µM; in the assay on OVCAR-3 ovarian, 29.8 µM. Further, the TGI with OVCAR-8 ovarian was 20.6 µM; with RXF 393 renal, 26.5 µM; with SF-539 CNS, 10.1 µM; in the assay with SK-MEL-2 melanoma, 28.7 µM; in the assay on SNB-75 CNS it was 19.8 µM; with U251 CNS, 10.9 µM.
With `Cc1nccn1S(=O)(=O)c1ccc(Cl)cc1`, the TGI with A498 renal is more than 100 µM; in the assay with HL-60(TB) leukemia, 60.5 µM; in the assay on IGROV1 ovarian, more than 100 µM; with LOX IMVI melanoma, more than 100 µM; in the assay with MDA-MB-231 breast, 78.9 µM; with OVCAR-3 ovarian, more than 100 µM. For the same molecule, the TGI in the assay with OVCAR-8 ovarian, with RXF 393 renal, with SF-539 CNS, in the assay on SK-MEL-2 melanoma, in the assay on SNB-75 CNS and in the assay on U251 CNS was more than 100 µM throughout.
Take `Nc1ccn(CC(O)c2cc3ccccc3[nH]2)c(=O)n1` (stereo not drawn): the TGI with A498 renal, in the assay with HL-60(TB) leukemia, in the assay with IGROV1 ovarian, with LOX IMVI melanoma, in the assay on MDA-MB-231 breast and in the assay with OVCAR-3 ovarian was more than 100 µM each time. Moreover, the TGI in the assay with OVCAR-8 ovarian, in the assay on RXF 393 renal, with SF-539 CNS, with SK-MEL-2 melanoma, with SNB-75 CNS and in the assay with U251 CNS was more than 100 µM each time.
For `CCCCCCCCCCCCCCCCCCNc1nc(=O)n(C2CC(OP(=O)(O)OCC3OC(n4cc(F)c(=O)[nH]c4=O)CC3O)C(CO)O2)cc1F` (stereo not drawn), the TGI was more than 100 µM in the assay on A498 renal; 20.3 µM with HL-60(TB) leukemia; more than 100 µM in the assay with IGROV1 ovarian; more than 100 µM in the assay on LOX IMVI melanoma; more than 100 µM with MDA-MB-231 breast; more than 100 µM with OVCAR-3 ovarian. The TGI in the assay with OVCAR-8 ovarian was 73.3 µM; with RXF 393 renal it was 63 µM; in the assay on SF-539 CNS, 43.9 µM; in the assay with SK-MEL-2 melanoma, 71 µM; in the assay with SNB-75 CNS, more than 100 µM; with U251 CNS, 65.2 µM.

Source of the values: PubChem BioAssay (NCI).
